Reference: paper PMC4183567, “Cysteine Transport through Excitatory Amino Acid Transporter 3 (EAAT3)” (PLoS ONE, 2014)
Read-outs that look alike come from different tables or passages of the source.

What was measured:
[1] = molecular target: T1, EAAT3 (Homo sapiens, UniProt P43005); assay: mEGFPpH fluorescence imaging of intracellular pH in HEK293 cells co-expressing EAAT3; conditions: for mEGFPpH fluorescence change: EAAT3 HEK293 cells
T1 sequence (P43005 1-524): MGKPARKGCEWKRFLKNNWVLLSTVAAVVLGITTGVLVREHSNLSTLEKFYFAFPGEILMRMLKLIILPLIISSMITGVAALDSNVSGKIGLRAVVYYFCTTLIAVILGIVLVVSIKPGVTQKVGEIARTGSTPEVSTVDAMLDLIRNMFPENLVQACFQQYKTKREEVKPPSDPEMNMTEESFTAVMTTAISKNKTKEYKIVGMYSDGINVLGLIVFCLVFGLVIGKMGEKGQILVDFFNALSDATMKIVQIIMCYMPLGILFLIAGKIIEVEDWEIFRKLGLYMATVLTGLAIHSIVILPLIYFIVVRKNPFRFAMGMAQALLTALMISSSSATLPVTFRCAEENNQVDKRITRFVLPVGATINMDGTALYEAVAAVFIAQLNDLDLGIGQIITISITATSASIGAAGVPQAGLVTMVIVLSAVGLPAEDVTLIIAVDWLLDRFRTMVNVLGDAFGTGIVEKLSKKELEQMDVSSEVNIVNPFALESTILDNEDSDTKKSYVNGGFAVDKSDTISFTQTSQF
Excerpt: (§5) Cells expressing mEGFPpH were imaged with a Zeiss Axiovert 135T inverted microscope with a 40X NeoFluar oil immersion objective (NA1.3). A Lambda DG4 (Sutter Instrument Co.) equipped with a xenon arc lamp was used for high-speed excitation wavelength switching. Images were collected using either a Quantix (Roper Scientific, Tucson, AZ) or an Orca ER (Hammamatsu Co.) cooled CCD. For pH imaging experiments, the fluorescence filters (Omega Optical) were: excitation 405±20 and 485±7.5; dichroic 400-480-585DLRP; emission 510±11.5. Software control and data acquisition were accomplished using Axon Imaging Workbench (INDEC Biosystems) or OpenLab acquisition software (Improvision, Perkin Elmer). Cells were incubated at room temperature with continuous perfusion using standard buffer containing (in mM): 146 NaCl, 5 KCl, 5 HEPES, 2.5 CaCl2 and 1.2 MgCl2 at pH 7.35 with additions (substrates etc.) as indicated in figure legends. Acquisition exposure times were identical for both 405 nm and 485 nm excitation wavelengths adjusted so that the 510 emission was not saturated for either excitation wavelength. Prior to perfusion with buffers containing substrates, cells were perfused in standard buffer to achieve a stable base line. Fluorescence was reported as the ratio of fluorescence at 510 nm by excitation with 485 and 405 nm wavelengths (F485/F405).

[2] = system: HEK293 cells
Excerpt: Cells expressing mEGFPpH were imaged with a Zeiss Axiovert 135T inverted microscope with a 40X NeoFluar oil immersion objective (NA1.3). A Lambda DG4 (Sutter Instrument Co.) equipped with a xenon arc lamp was used for high-speed excitation wavelength switching. Images were collected using either a Quantix (Roper Scientific, Tucson, AZ) or an Orca ER (Hammamatsu Co.) cooled CCD. For pH imaging experiments, the fluorescence filters (Omega Optical) were: excitation 405±20 and 485±7.5; dichroic 400-480-585DLRP; emission 510±11.5. Software control and data acquisition were accomplished using Axon Imaging Workbench (INDEC Biosystems) or OpenLab acquisition software (Improvision, Perkin Elmer). […] Fluorescence was reported as the ratio of fluorescence at 510 nm by excitation with 485 and 405 nm wavelengths (F485/F405).
For NH4Cl experiments, HEK293 cells expressing mEGFPpH were perfused with buffer to establish a stable fluorescence baseline, followed by perfusion with buffer containing 50 mM NH4Cl substituted for 50 mM NaCl, followed by NH4Cl washout with standard buffer as indicated. Calibration of fluorescence ratio changes with intracellular pH was accomplished following the NH4Cl experiments, by perfusion of the cells with standard buffer containing 10 µM each of nigericin and valinomycin at the following pH: 6.5, 7.35, 7.5, 7.75, 8, 8.5. […]

[3] = molecular target: T2, EAAT3 and ASCT1 (Homo sapiens, UniProt P43005); assay: Release of preloaded [35S]-L-cysteine from Xenopus oocytes co-expressing EAAT3 and ASCT1; type: cell-based
T2 construct: expressed in transfected cells; host or cells: Xenopus oocytes
T2 sequence (P43005 1-524): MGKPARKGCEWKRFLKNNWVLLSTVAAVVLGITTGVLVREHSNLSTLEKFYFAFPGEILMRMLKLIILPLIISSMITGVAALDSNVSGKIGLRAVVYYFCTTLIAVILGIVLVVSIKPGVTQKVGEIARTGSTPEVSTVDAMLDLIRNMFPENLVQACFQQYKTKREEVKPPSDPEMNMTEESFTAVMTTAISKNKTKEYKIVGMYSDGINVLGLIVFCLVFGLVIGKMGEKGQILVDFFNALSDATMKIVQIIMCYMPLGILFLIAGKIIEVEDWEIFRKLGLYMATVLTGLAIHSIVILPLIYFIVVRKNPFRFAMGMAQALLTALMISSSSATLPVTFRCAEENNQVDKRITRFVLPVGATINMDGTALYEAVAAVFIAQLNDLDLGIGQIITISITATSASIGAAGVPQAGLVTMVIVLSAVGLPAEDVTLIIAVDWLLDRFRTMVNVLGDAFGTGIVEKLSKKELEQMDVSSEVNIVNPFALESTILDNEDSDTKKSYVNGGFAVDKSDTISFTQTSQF
Procedure: (§1) mRNA from linearized pOTV-EAAT1, pOTV-EAAT2 and pOTV-EAAT3 was generated as previously described and resuspended in RNAase-free water and used for oocytes injections.
(§2) Oocytes were washed 3 times in ND96 buffer followed by incubation for 10 min with non-radiolabeled substrates as indicated. The supernatant was removed and collected for scintillation counting, while the oocytes were lysed in 1% sodium dodecylsulfate (SDS). The oocytes lysate and supernatant were counted separately by liquid scintillation counting to determine both retained and released radioactivity respectively. Percent of released radioactivity was determined as a function of the released/(retained + released).

[4] = molecular target: T2, EAAT3 and ASCT1; assay: Release of preloaded [3H]-L-glutamate from Xenopus oocytes co-expressing EAAT3 and ASCT1; type: cell-based
Procedure: (§3) mRNA from linearized pOTV-EAAT1, pOTV-EAAT2 and pOTV-EAAT3 was generated as previously described and resuspended in RNAase-free water and used for oocytes injections. Xenopus oocytes where injected with 50 nl of mRNA and incubated at 18°C in 96 mM NaCl, 2 mM KCl, 1.8 mM CaCl2, 1.0 mM MgCl2, 5 mM HEPES, pH 7.4 (ND96) supplemented with 2.5 mM Sodium Pyruvate and Gentamicyn for 2 to 3 days prior to using in electrophysiological recordings and radio-labeled transport experiments.
as §2

[5] = system: EAATs; conditions: very low affinity; cited from earlier work
[6] = system: EAAT3 and ASCT1; assay: Substrate-gated NO3 currents in Xenopus oocytes co-expressing EAAT3 and ASCT1; type: cell-based, human; conditions: 1 mM substrate, oocytes co-expressing EAAT3 and ASCT1, n = 4
Procedure: as §3
(§4) Oocytes were held at −60 mV, and currents elicited by 200 ms voltage steps between −120 mV and +60 mV were filtered at 2 kHz (−3dB) and digitalized with a sampling rate of 10 kHz using a Digidata AD/DA converter (Molecular Devices, Sunnyvale, CA, USA). Borosilicate pipets where filled with 3 M KCl and typical resistances where 0.2 to 1 MΩ. Transport currents were determined at −60 mV in a gluconate-based ND96 solution. In order to dialyze internal chloride, oocytes were incubated 12 to 24 hours in the gluconate solution. Anion currents were determined at positive potentials (+60 mV) after exchanging the external solution to NO3-based ND96 (replacement of 96 mM NaCl with 96 mM NaNO3) solution in the absence or in the presence of 1 mM external substrates. […] Data were analyzed with a combination of pClamp 9.2 (Axon Instrument) and Sigma Plot (Jandel Scientific, San Rafael, CA, USA). […]

[7] = molecular target: EAAT2 (Homo sapiens, UniProt P43004); assay: mEGFPpH fluorescence imaging of intracellular pH in HEK293 cells co-expressing EAAT2; type: cell-based; set-up: expressed in transfected cells; host or cells: HEK293; conditions: 1 mM perfusion
Excerpt: as §5

[8] = molecular target: T1, EAAT3; assay: Substrate-gated anion (NO3) currents in Xenopus oocytes expressing EAAT3; type: cell-based; conditions: 1 mM substrate; for average anion current amplitude at +60 mV: NaNO3, oocytes expressing EAAT3 alone, Figure 7C, n = 6
Procedure: as §3
Oocytes were held at −60 mV, and currents elicited by 200 ms voltage steps between −120 mV and +60 mV were filtered at 2 kHz (−3dB) and digitalized with a sampling rate of 10 kHz using a Digidata AD/DA converter (Molecular Devices, Sunnyvale, CA, USA). Borosilicate pipets where filled with 3 M KCl and typical resistances where 0.2 to 1 MΩ. Transport currents were determined at −60 mV in a gluconate-based ND96 solution. In order to dialyze internal chloride, oocytes were incubated 12 to 24 hours in the gluconate solution. Anion currents were determined at positive potentials (+60 mV) after exchanging the external solution to NO3-based ND96 (replacement of 96 mM NaCl with 96 mM NaNO3) solution in the absence or in the presence of 1 mM external substrates. In experiments using cysteine as a substrate, all solutions contained 2 mM dithiothreitol (DTT). Data were analyzed with a combination of pClamp 9.2 (Axon Instrument) and Sigma Plot (Jandel Scientific, San Rafael, CA, USA). Whole cell current amplitudes are shown without any subtraction protocol. Current-voltage relationships were constructed by plotting the isochronal current 6 ms after the voltage step versus the membrane potential. All data are given as the mean ± standard deviation of the mean (SDM). For evaluation the statistical relevance, the Student’s t-Test was used with an α of 0.05.

[9] = molecular target: T1, EAAT3; assay: Glutamate inhibition of [35S]-L-cysteine uptake in Xenopus oocytes expressing EAAT3; type: cell-based; set-up: expressed in transfected cells; host or cells: HEK293
Procedure: as §3
Cysteine transport was measured for 10 min in Xenopus oocytes with serial dilution of a mixture of 10 mM cysteine and 20 nM [^35S]-L-cysteine in ND96. Transport was terminated by three washes of ND96, after which accumulated radiolabel was quantitated by liquid scintillation counting. […] Transport was terminated by three washes in ND96 followed by liquid scintillation counting.

[10] = system: EAAT3 and ASCT1; assay: Release of preloaded [35S]-L-cysteine from Xenopus oocytes co-expressing EAAT3 and ASCT1; type: cell-based, human; conditions: 10 min
Procedure: as §1, §2

[11] = substrate: N[C@@H](CCC(=O)O)C(=O)O; assay: cells, lysate or membranes; conditions: other: slope normalized to 1 mM glutamate, 0.5 µM to 2 mM glutamate; pH 7.35; 37.0 °C
[12] = substrate: N[C@@H](CCC(=O)O)C(=O)O; assay: cells, lysate or membranes; type: cell-based, human; conditions: other: similarly transfected HEK293 cells
Procedure: For radiolabeled transport experiments, 2×10^6 cells were transfected in 1 mL of Opti-Mem (Life Technologies) using 6 µL of Lipofectamine 2000 (Invitrogen) with 1 µg pCMV-EAAT2 or pCMV-EAAT3 DNA and plated at 5×10^4 cells/well in 24 well Costar (Corning) plates with 0.5 mL DMEM culture media prepared as above. Following transfection and plating, cells were cultured 2–3 days prior to [^3H]-L-Glutamate transport experiments.

[13] = substrate: N[C@@H](C[SeH])C(=O)O; assay: Two-electrode voltage clamp transport currents in Xenopus oocytes expressing EAAT3; type: cell-based, human; conditions: other: -60 mV, normalized transport current vs concentration, n = 6; pH 7.4; 18.0 °C
Procedure: as §3, §4

Sequence of EAAT2 (P43004 whole entry, the tested form may be a part): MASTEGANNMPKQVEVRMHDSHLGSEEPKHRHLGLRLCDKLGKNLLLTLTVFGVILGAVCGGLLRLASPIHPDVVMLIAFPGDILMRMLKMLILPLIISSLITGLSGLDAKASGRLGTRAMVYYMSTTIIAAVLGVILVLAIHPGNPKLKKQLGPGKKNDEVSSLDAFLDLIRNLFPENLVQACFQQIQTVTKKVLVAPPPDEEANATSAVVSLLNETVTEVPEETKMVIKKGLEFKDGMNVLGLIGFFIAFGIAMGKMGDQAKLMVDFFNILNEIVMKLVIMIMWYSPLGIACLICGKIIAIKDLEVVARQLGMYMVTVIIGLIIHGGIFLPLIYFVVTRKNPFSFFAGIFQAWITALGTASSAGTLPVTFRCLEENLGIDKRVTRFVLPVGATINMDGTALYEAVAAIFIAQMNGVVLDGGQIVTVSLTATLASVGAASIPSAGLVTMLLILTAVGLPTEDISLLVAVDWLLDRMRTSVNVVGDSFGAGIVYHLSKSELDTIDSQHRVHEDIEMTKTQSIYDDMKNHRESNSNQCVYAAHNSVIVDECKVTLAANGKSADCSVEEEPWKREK

## N[C@H](CC(=O)O)C(=O)O [D-aspartate]
[1]; 100 µM perfusion
  mEGFPpH fluorescence change: fluorescence decrease similar to that observed for 100 µM glutamate

## Cl.N [NH4Cl]
[2]; after NH4Cl washout
  average intracellular pH (pHi): ~6.5
[2]; during 50 mM NH4Cl perfusion, initial pHi ~7.4, n = 4
  average intracellular pH (pHi): ~8.5

## N[C@H](C(=O)O)[C@H](OCc1ccccc1)C(=O)O [TBOA]
[3]; TBOA co-incubation
  effect on [35S]-L-cysteine release in presence of 100 µM glutamate: not significantly inhibited
  effect on [35S]-cysteine release induced by 300 µM cysteine: not inhibited
[1]; 100 µM TBOA co-applied with 1 mM cysteine
  effect on cysteine-induced mEGFPpH fluorescence increase: blocked
[1]; co-application with glutamate, data not shown
  effect on glutamate-induced mEGFPpH fluorescence changes: blocked
[4]; TBOA co-application, data not shown
  effect on [3H]-L-glutamate release induced by K+ containing buffer: blocking this release
[4]; TBOA co-incubation
  effect on [3H]-L-glutamate release induced by 100 µM L-glutamate: blocked
  effect on [3H]-L-glutamate release induced by cysteine: blocked

## C[C@H](N)C(=O)O [alanine]
[5]
  affinity for the transporters: > 1 mM

## N[C@@H](CCC(=O)O)C(=O)O [glutamate, L-glutamate]
[6]
  macroscopic anion current amplitude at +60 mV: 1.1±0.1 µA
[3]; 100 µM extracellular substrate, 10 min
  release of preloaded [35S]-L-cysteine: less than 2%
[1]; 0.5 µM perfusion
  mEGFPpH fluorescence change: no observable fluorescence changes from baseline
[1]; 1 mM perfusion
  mEGFPpH fluorescence change: fluorescence decrease
[7]
  mEGFPpH fluorescence change: significant quench of mEGFPpH fluorescence
[8]; NO3-based solution, Figure 2C, n = 4
  anion current amplitude at +60 mV: 1.78±0.4 µA
[8]
  average anion current amplitude at +60 mV: 2.2±0.12 µA
[4]; 100 µM extracellular substrate
  release of loaded [3H]-L-glutamate: 5%
[9]; pH 6.9, read-out: inhibition of cysteine transport
  inhibition at 100 µM: 40%
[9]; pH 6.9, read-out: inhibition of cysteine uptake
  inhibition at 100 µM: ~75%

## N[C@@H](CO)C(=O)O [serine, L-serine]
[5]
  affinity for the transporters: > 1 mM
[6]
  macroscopic anion current amplitude at +60 mV: 0.6±0.07 µA
[10]; 300 µM extracellular substrate
  release of preloaded [35S]-L-cysteine: 10%
[10]; 1 mM extracellular substrate
  release of preloaded [35S]-L-cysteine: 20%
[8]
  average anion current amplitude at +60 mV: 0.60±0.05 µA
[4]; 1 mM extracellular substrate, data not shown
  release of loaded [3H]-L-glutamate: did not induce significant release

B1: EAAT3 (Homo sapiens) (protein)
chain: MGKPARKGCEWKRFLKNNWVLLSTVAAVVLGITTGVLVREHSNLSTLEKFYFAFPGEILMRMLKLIILPLIISSMITGVAALDSNVSGKIGLRAVVYYFCTTLIAVILGIVLVVSIKPGVTQKVGEIARTGSTPEVSTVDAMLDLIRNMFPENLVQACFQQYKTKREEVKPPSDPEMNMTEESFTAVMTTAISKNKTKEYKIVGMYSDGINVLGLIVFCLVFGLVIGKMGEKGQILVDFFNALSDATMKIVQIIMCYMPLGILFLIAGKIIEVEDWEIFRKLGLYMATVLTGLAIHSIVILPLIYFIVVRKNPFRFAMGMAQALLTALMISSSSATLPVTFRCAEENNQVDKRITRFVLPVGATINMDGTALYEAVAAVFIAQLNDLDLGIGQIITISITATSASIGAAGVPQAGLVTMVIVLSAVGLPAEDVTLIIAVDWLLDRFRTMVNVLGDAFGTGIVEKLSKKELEQMDVSSEVNIVNPFALESTILDNEDSDTKKSYVNGGFAVDKSDTISFTQTSQF
notes: expressed in transfected cells; host or cells: HEK293
[11]
  Km: 30 µM
[12]
  Km: 70 µM
[13]
  Km: 7.14 ± 0.3 µM
